In the NIST ThermoML archive (doi:10.1021/je300280s):
Where “and” joins values, the source holds several entries; their conditions need not be identical. Equal values may be shown once.

Key:
[1] = 101.33 kPa, Liquid, Vibrating tube method
[2] = xn = mol fraction of the nth substance listed; details: 101.3 kPa, Liquid, Vibrating tube method
[3] = excess molar enthalpy (molar enthalpy of mixing); xn = mol fraction of the nth substance listed; details: 101.3 kPa, Liquid, Flow calorimetry

CC(=O)C(C)=O [2,3-butanedione]
[1]
Details	mass density [kg/m3]
288.15 K	998.09
293.15 K	991.78
298.15 K	985.5
303.15 K	979.18
308.15 K	972.83
313.15 K	966.48
318.15 K	960.08

CC/C=C\CCO [(Z)-3-hexen-1-ol]
[1]
Details	mass density [kg/m3]
288.15 K	856.22
293.15 K	852.44
298.15 K	848.64
308.15 K	840.99
318.15 K	833.27

CC/C=C\CCO [(Z)-3-hexen-1-ol] + O
Details	excess molar enthalpy, [3]	mass density, [2]
288.15 K, x1 = 0.000611	-0.00142 kcal/mol	998.763 kg/m3
288.15 K, x1 = 0.000916	-0.0021 kcal/mol	998.596 kg/m3
288.15 K, x1 = 0.001221	-0.00278 kcal/mol	998.432 kg/m3
288.15 K, x1 = 0.001526	-0.00344 kcal/mol	998.27 kg/m3
288.15 K, x1 = 0.001831	-0.0041 kcal/mol	998.106 kg/m3
288.15 K, x1 = 0.002135	-0.00473 kcal/mol	997.95 kg/m3
298.15 K, x1 = 0.00061	-0.000963 kcal/mol	996.68 kg/m3
298.15 K, x1 = 0.000915	-0.00143 kcal/mol	996.493 kg/m3
298.15 K, x1 = 0.00122	-0.00187 kcal/mol	996.319 kg/m3
298.15 K, x1 = 0.001524	-0.00231 kcal/mol	996.139 kg/m3
298.15 K, x1 = 0.001828	-0.00275 kcal/mol	995.963 kg/m3
298.15 K, x1 = 0.002132	-0.00316 kcal/mol	995.788 kg/m3
308.15 K, x1 = 0.000306	-0.00028 kcal/mol	993.834 kg/m3
308.15 K, x1 = 0.000611	-0.000528 kcal/mol	993.642 kg/m3
308.15 K, x1 = 0.000612	-0.000533 kcal/mol	993.637 kg/m3
308.15 K, x1 = 0.000916	-0.000786 kcal/mol	993.442 kg/m3
308.15 K, x1 = 0.000918	-0.000789 kcal/mol	993.441 kg/m3
308.15 K, x1 = 0.001221	-0.00102 kcal/mol	993.253 kg/m3
308.15 K, x1 = 0.001224	-0.00102 kcal/mol	993.253 kg/m3
308.15 K, x1 = 0.001526	-0.00125 kcal/mol	993.064 kg/m3
308.15 K, x1 = 0.001529	-0.00126 kcal/mol	993.059 kg/m3
308.15 K, x1 = 0.001831	–	992.912 kg/m3
308.15 K, x1 = 0.001835	-0.00146 kcal/mol	992.883 kg/m3
318.15 K, x1 = 0.000611	-0.000141 kcal/mol	989.794 kg/m3
318.15 K, x1 = 0.000612	-0.000139 kcal/mol	989.796 kg/m3
318.15 K, x1 = 0.000917	-0.000198 kcal/mol and -0.000194 kcal/mol	989.578 kg/m3 and 989.591 kg/m3
318.15 K, x1 = 0.001222	-0.000241 kcal/mol	989.38 kg/m3
318.15 K, x1 = 0.001223	-0.000239 kcal/mol	989.388 kg/m3
318.15 K, x1 = 0.001527	-0.00028 kcal/mol	989.183 kg/m3
318.15 K, x1 = 0.001528	-0.000284 kcal/mol	989.184 kg/m3
318.15 K, x1 = 0.001832	-0.000308 kcal/mol	988.988 kg/m3
318.15 K, x1 = 0.001833	-0.000311 kcal/mol	988.984 kg/m3
318.15 K, x1 = 0.002137	–	988.803 kg/m3 and 988.815 kg/m3

CCCC(=O)OC [methyl butanoate]
[1]
Details	mass density [kg/m3]
288.15 K	903.34
293.15 K	897.88
298.15 K	892.38
303.15 K	886.86
308.15 K	881.3
313.15 K	875.74
318.15 K	870.14

CCCOC(C)=O [propyl ethanoate]
[1]
Details	mass density [kg/m3]
288.15 K	893.2
298.15 K	882.05
308.15 K	870.87
318.15 K	859.52
